# Measured values reported in PubChem BioAssay AID1963986 (Molecular Pharmacology Branch, DTP, NCI, 2024).
# Where “and” joins values, the source holds several entries; their conditions need not be identical. Identical values can stand only once.
# System: 171881-019-R-J1-PDC tumor spheroid viability
# Test: Anticancer human tumor 171881-019-R-J1-PDC patient-derived invasive breast carcinoma cell line growth inhibition [PI3K]
# Conditions: spheroids with HUVEC and MSC; for viability, T/C: stronger effect = lower value
# In short: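 Multi-cell spheroids combine tumor cells with HUVEC and human MSCs, treated with targeted agents alone or with inavolisib, alpelisib, duvelisib or copanlisib. Concentrations fall in half-log steps from at or near clinical Cmax, or from 10 microM where Cmax is unknown; viability read-out.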
# 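Note: spheroids exposed to compound for 7 days before viability read.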
# 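Throughout, for viability, T/C: 100% = DMSO vehicle-treated spheroids.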
smiles,measurement,setting,value
CCN1CCN(Cc2ccc(Nc3ncc(F)c(-c4cc(F)c5nc(C)n(C(C)C)c5c4)n3)nc2)CC1 + COc1c(OCCCN2CCOCC2)ccc2c3n(c(=NC(=O)c4cnc(N)nc4)nc12)CCN3,IC50,"curve of first compound, second compound 0.00316 µM",> 1000 nM
same,IC50,"curve of first compound, second compound 0.01 µM",> 1000 nM
same,IC50,"curve of first compound, second compound 0.0316 µM",< 3.16 nM
same,IC50,"curve of first compound, second compound 0.1 µM",< 3.16 nM
same,IC50,"curve of first compound, second compound 0.316 µM",< 3.16 nM
same,IC50,"curve of first compound, second compound 1 µM",< 3.16 nM
same,"viability, T/C","second compound 0.00316 µM, first compound 0.00316 µM",71.9%
same,"viability, T/C","second compound 0.00316 µM, first compound 0.01 µM",73.1%
same,"viability, T/C","second compound 0.00316 µM, first compound 0.0316 µM",83.8%
same,"viability, T/C","second compound 0.00316 µM, first compound 0.1 µM",80.4%
same,"viability, T/C","second compound 0.00316 µM, first compound 0.316 µM",93.8%
same,"viability, T/C","second compound 0.00316 µM, first compound 1 µM",99.6%
same,"viability, T/C","second compound 0.01 µM, first compound 0.00316 µM",48.9%
same,"viability, T/C","second compound 0.01 µM, first compound 0.01 µM",56.9%
same,"viability, T/C","second compound 0.01 µM, first compound 0.0316 µM",53.6%
same,"viability, T/C","second compound 0.01 µM, first compound 0.1 µM",63.8%
same,"viability, T/C","second compound 0.01 µM, first compound 0.316 µM",69%
same,"viability, T/C","second compound 0.01 µM, first compound 1 µM",83.2%
same,"viability, T/C","second compound 0.0316 µM, first compound 0.00316 µM",27.4%
same,"viability, T/C","second compound 0.0316 µM, first compound 0.01 µM",31.5%
same,"viability, T/C","second compound 0.0316 µM, first compound 0.0316 µM",33.8%
same,"viability, T/C","second compound 0.0316 µM, first compound 0.1 µM",36.9%
same,"viability, T/C","second compound 0.0316 µM, first compound 0.316 µM",44.6%
same,"viability, T/C","second compound 0.0316 µM, first compound 1 µM",50.6%
same,"viability, T/C","second compound 0.1 µM, first compound 0.00316 µM",10.5%
same,"viability, T/C","second compound 0.1 µM, first compound 0.01 µM",10.2%
same,"viability, T/C","second compound 0.1 µM, first compound 0.0316 µM",12.2%
same,"viability, T/C","second compound 0.1 µM, first compound 0.1 µM",12.8%
same,"viability, T/C","second compound 0.1 µM, first compound 0.316 µM",16%
same,"viability, T/C","second compound 0.1 µM, first compound 1 µM",23.8%
same,"viability, T/C","second compound 0.316 µM, first compound 0.00316 µM",2.23%
same,"viability, T/C","second compound 0.316 µM, first compound 0.01 µM",2.11%
same,"viability, T/C","second compound 0.316 µM, first compound 0.0316 µM",2.24%
same,"viability, T/C","second compound 0.316 µM, first compound 0.1 µM",2.94%
same,"viability, T/C","second compound 0.316 µM, first compound 0.316 µM",4.39%
same,"viability, T/C","second compound 0.316 µM, first compound 1 µM",7.79%
same,"viability, T/C","second compound 1 µM, first compound 0.00316 µM",0.86%
same,"viability, T/C","second compound 1 µM, first compound 0.01 µM",1.08%
same,"viability, T/C","second compound 1 µM, first compound 0.0316 µM",1.81%
same,"viability, T/C","second compound 1 µM, first compound 0.1 µM",1.03%
same,"viability, T/C","second compound 1 µM, first compound 0.316 µM",1.58%
same,"viability, T/C","second compound 1 µM, first compound 1 µM",2.28%
CC(Cn1ccc(-c2ccc(C#N)c(Cl)c2)n1)NC(=O)c1cc(C(C)O)[nH]n1 (stereo unspecified),"viability, T/C",compound 0.0316 µM,95.5% [middle of 4 runs]
same,"viability, T/C",compound 0.1 µM,91.1% [middle of 4 runs]
same,"viability, T/C",compound 0.316 µM,92.4% [middle of 4 runs]
same,"viability, T/C",compound 1 µM,93.4% [middle of 4 runs]
same,"viability, T/C",compound 3.16 µM,87.9% [middle of 4 runs]
same,"viability, T/C",compound 10 µM,64.3% [middle of 4 runs]
same,IC50,curve of compound,> 10000 nM
CCN1CCN(Cc2ccc(Nc3ncc(F)c(-c4cc(F)c5nc(C)n(C(C)C)c5c4)n3)nc2)CC1,"viability, T/C",compound 0.00316 µM,98.7% [middle of 4 runs]
same,"viability, T/C",compound 0.01 µM,99.5% [middle of 4 runs]
same,"viability, T/C",compound 0.0316 µM,95.2% and 108% (2×) and 103%
same,"viability, T/C",compound 0.1 µM,107% [middle of 4 runs]
same,"viability, T/C",compound 0.316 µM,115% [middle of 4 runs]
same,"viability, T/C",compound 1 µM,122% [middle of 4 runs]
same,IC50,curve of compound,> 1000 nM
